Data from patent publication US20220033397A1, “PHARMACEUTICAL COMPOUNDS AND THEIR USE AS INHIBITORS OF UBIQUITIN SPECIFIC PROTEASE 19 (USP19)” (ALMAC DISCOVERY LIMITED, priority 2018, published 2022).

Biological target: T1, Full-length USP19 (Homo sapiens, UniProt O94966)
T1 construct: Full-length USP19 was purchased from Boston Biochem (E-576); purchased Boston Biochem E-576
T1 sequence (O94966 1-1318): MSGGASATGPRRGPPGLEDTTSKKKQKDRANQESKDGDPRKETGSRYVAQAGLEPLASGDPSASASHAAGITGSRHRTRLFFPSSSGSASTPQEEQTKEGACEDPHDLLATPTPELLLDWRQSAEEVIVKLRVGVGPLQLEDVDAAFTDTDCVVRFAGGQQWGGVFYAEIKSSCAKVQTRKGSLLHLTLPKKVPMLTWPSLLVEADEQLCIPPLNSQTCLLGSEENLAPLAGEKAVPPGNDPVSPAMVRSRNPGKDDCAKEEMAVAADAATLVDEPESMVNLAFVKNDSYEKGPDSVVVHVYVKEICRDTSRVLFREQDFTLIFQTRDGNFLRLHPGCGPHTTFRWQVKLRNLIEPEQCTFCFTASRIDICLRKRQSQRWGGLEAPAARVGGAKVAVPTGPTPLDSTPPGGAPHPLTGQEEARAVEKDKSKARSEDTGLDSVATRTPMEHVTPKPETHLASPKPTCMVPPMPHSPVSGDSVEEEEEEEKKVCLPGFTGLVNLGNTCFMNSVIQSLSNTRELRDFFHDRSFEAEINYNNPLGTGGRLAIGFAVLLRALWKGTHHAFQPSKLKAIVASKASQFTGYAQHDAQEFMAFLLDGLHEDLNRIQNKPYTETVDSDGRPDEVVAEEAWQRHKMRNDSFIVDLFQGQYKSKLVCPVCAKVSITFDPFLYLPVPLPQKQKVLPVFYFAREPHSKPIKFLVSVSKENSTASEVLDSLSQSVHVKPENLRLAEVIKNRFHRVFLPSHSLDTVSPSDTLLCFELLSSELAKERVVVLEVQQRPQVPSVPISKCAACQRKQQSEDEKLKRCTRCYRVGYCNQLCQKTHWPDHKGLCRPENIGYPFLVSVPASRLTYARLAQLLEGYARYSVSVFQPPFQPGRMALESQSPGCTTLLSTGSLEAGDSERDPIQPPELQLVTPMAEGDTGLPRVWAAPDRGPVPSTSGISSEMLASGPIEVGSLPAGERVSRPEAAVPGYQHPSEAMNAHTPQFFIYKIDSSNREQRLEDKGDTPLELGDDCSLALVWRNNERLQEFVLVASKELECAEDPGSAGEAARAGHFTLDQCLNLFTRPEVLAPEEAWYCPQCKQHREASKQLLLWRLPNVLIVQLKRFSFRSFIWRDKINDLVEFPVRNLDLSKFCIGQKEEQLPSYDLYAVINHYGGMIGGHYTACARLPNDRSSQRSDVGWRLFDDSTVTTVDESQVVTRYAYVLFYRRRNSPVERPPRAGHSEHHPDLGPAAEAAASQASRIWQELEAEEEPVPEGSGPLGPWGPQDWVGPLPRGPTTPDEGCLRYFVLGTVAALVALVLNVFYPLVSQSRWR
Assay: USP19 fluorescence polarisation (FP) homogeneous assay with Ubiquitin-Lys-TAMRA substrate
Format: biochemical
Details: 2.5 nM USP19, 30 min pre-incubation, average of at least two duplicate experiments
Description: Unless otherwise stated, all other reagents were purchased from Sigma. Enzymatic reactions were conducted in black flat bottom polystyrene 384-well plates (Nunc) and 30 μL total volume. […] Inhibitors were stored as 10 mM DMSO stocks in an inert environment (low humidity, dark, low oxygen, room temperature) using the Storage Pod System and serial dilutions were prepared in buffer just prior to the assay (from 200 μM to 2 μM, 8-18 data point curve).
Following incubation at RT for 30 min, the enzymatic reactions were initiated by dispensing the Ub substrate (500 nM, 10 μL). FP was measured every 15 min over a period of 90 min (within the linear range of the assay) using a Synergy 4 plate reader (BioTek) exciting at 530 nm and measuring the amount of parallel and perpendicular light at 575 nm. The FP signal was subsequently normalised to the no compound control.

| Compound | IC50 |
| --- | --- |
| N=S1(=O)CCN(C(=O)N2CC[C@@](O)(Cn3cnc(-c4ccccc4)cc3=O)C3(CCCC3)C2)[C@H](c2cc(F)ccc2F)C1 (mixture of isomers) [Example 395] | < 0.5 µM |
| O=C(N1CC[C@@](O)(Cn2cnc(-c3ccccc3)cc2=O)C2(CCCC2)C1)N1CCNCC1c1cc(F)cc(F)c1 (mixture of isomers) [Example 380, 3-(((10S)-7-(2-(3,5-difluorophenyl)piper-azine-1-carbonyl)-10-hydroxy-7-azaspiro[4.5]decan-10-yl)methyl)-6-phenylpyrimidin-4(3H)-one] | < 0.5 µM |
| C[C@H](CC1CCCCC1)C(=O)N1CCC(O)(Cn2cc(-c3ccccc3)ncc2=O)C(C)(C)C1 (stereo partly drawn) [Example 2, 1-((1-((R)-3-Cyclohexyl-2-methylpropanoyl)-4-hydroxy-3,3-dimethylpiperidin-4-yl)methyl)-5-phenylpyrazin-2(1H)-one] | 0.5 to 5 µM |
| C[C@H](CC(F)(F)F)C(=O)N1CCC(O)(Cn2ccncc2=O)C2(CCCC2)C1 (stereo partly drawn) [Example 5, 1-((10-Hydroxy-7-((R)-4,4,4-trifluoro-2-methylbutanoyl)-7-azaspiro[4.5]decan-10-yl)methyl)pyrazin-2(1H)-one] | 5 to 50 µM |
| C[C@H](CC1CCCCC1)C(=O)N1CCC(O)(Cn2cc(C(=O)N3CCNCC3)ncc2=O)C2(CCCC2)C1 (stereo partly drawn) [Example 11, 1-((7-((R)-3-Cyclohexyl-2-methylpropanoyl)-10-hydroxy-7-azaspiro[4.5]decan-10-yl)methyl)-5-(piperazine-1-carbonyl)pyrazin-2(1H)-one] | < 0.5 µM |
| C[C@H](CC1CCCCC1)C(=O)N1CCC(O)(Cn2cc(-c3cccnc3)ncc2=O)C(C)(C)C1 (stereo partly drawn) [Example 12, 1-((1-((R)-3-Cyclohexyl-2-methylpropanoyl)-4-hydroxy-3,3-dimethylpiperidin-4-yl)methyl)-5-(pyridin-3-yl)pyrazin-2(1H)-one] | 0.5 to 5 µM |
| C[C@H](CC1CCCCC1)C(=O)N1CCC(O)(Cn2cc(N3CCCC3=O)ncc2=O)C(C)(C)C1 (stereo partly drawn) [Example 13, 1-((1-((R)-3-Cyclohexyl-2-methylpropanoyl)-4-hydroxy-3,3-dimethylpiperidin-4-yl)methyl)-5-(2-oxopyrrolidin-1-yl)pyrazin-2(1H)-one] | 0.5 to 5 µM |
| C[C@H](CC1CCCCC1)C(=O)N1CCC(O)(Cn2cc(-c3ccncc3)ncc2=O)C(C)(C)C1 (stereo partly drawn) [Example 14, 1-((1-((R)-3-Cyclohexyl-2-methylpropanoyl)-4-hydroxy-3,3-dimethylpiperidin-4-yl)methyl)-5-(pyridin-4-yl)pyrazin-2(1H)-one] | 0.5 to 5 µM |
| C[C@H](CC1CCCCC1)C(=O)N1CCC(O)(Cn2cc(-c3ccn[nH]3)ncc2=O)C(C)(C)C1 (stereo partly drawn) [Example 17, 1-((1-((R)-3-Cyclohexyl-2-methylpropanoyl)-4-hydroxy-3,3-dimethylpiperidin-4-yl)methyl)-5-(1H-pyrazol-5-yl)pyrazin-2(1H)-one] | 0.5 to 5 µM |
| C[C@H](CC1CCCCC1)C(=O)N1CCC(O)(Cn2cc(-n3cccn3)ncc2=O)C(C)(C)C1 (stereo partly drawn) [Example 18, 1-((1-((R)-3-Cyclohexyl-2-methylpropanoyl)-4-hydroxy-3,3-dimethylpiperidin-4-yl)methyl)-5-(1H-pyrazol-1-yl)pyrazin-2(1H)-one] | 0.5 to 5 µM |
| Cc1cn(CC2(O)CCN(C(=O)[C@H](C)CC3CCCCC3)CC2(C)C)c(=O)cn1 (stereo partly drawn) [Example 21, 1-((1-((R)-3-Cyclohexyl-2-methylpropanoyl)-4-hydroxy-3,3-dimethylpiperidin-4-yl)methyl)-5-methylpyrazin-2(1H)-one] | 5 to 50 µM |
| C[C@H](CC1CCCCC1)C(=O)N1CCC(O)(Cn2cc(C3CC3)ncc2=O)C(C)(C)C1 (stereo partly drawn) [Example 22, 1-((1-((R)-3-Cyclohexyl-2-methylpropanoyl)-4-hydroxy-3,3-dimethylpiperidin-4-yl)methyl)-5-cyclopropylpyrazin-2(1H)-one] | 0.5 to 5 µM |
| C[C@H](CC1CCCCC1)C(=O)N1CCC(O)(Cn2cc(-c3ccccn3)ncc2=O)C(C)(C)C1 (stereo partly drawn) [Example 23, 1-((1-((R)-3-Cyclohexyl-2-methylpropanoyl)-4-hydroxy-3,3-dimethylpiperidin-4-yl)methyl)-5-(pyridin-2-yl)pyrazin-2(1H)-one] | 5 to 50 µM |
| C[C@H](CC(=O)N1CCC(O)(CN2CCN(c3ccccc3F)CC2=O)CC1)c1ccccc1 [Example 24, (R)-4-(2-Fluorophenyl)-1-((4-hydroxy-1-(3-phenylbutanoyl)piperidin-4-yl)methyl)piperazin-2-one] | 50 to 250 µM |

Now from value to compound:

| IC50 | Compound |
| --- | --- |
| 0.5 to 5 µM | C[C@H](CC1CCCCC1)C(=O)N1CCC(O)(Cn2ccncc2=O)C(C)(C)C1 (stereo partly drawn) [Example 1, 1-((1-((R)-3-Cyclohexyl-2-methylpropanoyl)-4-hydroxy-3,3-dimethylpiperidin-4-yl)methyl)pyrazin-2(1H)-one] |
| 0.5 to 5 µM | C[C@H](CC1CCCCC1)C(=O)N1CCC(O)(Cn2ccncc2=O)C2(CCCC2)C1 (stereo partly drawn) [Example 3, 1-((7-((R)-3-Cyclohexyl-2-methylpropanoyl)-10-hydroxy-7-azaspiro[4.5]decan-10-yl)methyl)pyrazin-2(1H)-one] |
| 0.5 to 5 µM | C[C@H](CC1CCC1)C(=O)N1CCC(O)(Cn2ccncc2=O)C2(CCCC2)C1 (stereo partly drawn) [Example 4, 1-((7-((R)-3-Cyclobutyl-2-methylpropanoyl)-10-hydroxy-7-azaspiro[4.5]decan-10-yl)methyl) pyrazin-2(1H)-one] |
| < 0.5 µM | C[C@H](CC1CCCCC1)C(=O)N1CCC(O)(Cn2cc(Cl)ncc2=O)C2(CCCC2)C1 (stereo partly drawn) [Example 6, 5-Chloro-1-((7-((R)-3-cyclohexyl-2-methylpropanoyl)-10-hydroxy-7-azaspiro[4.5]decan-10-yl)methyl)pyrazin-2(1H)-one] |
| < 0.5 µM | C[C@H](CC1CCCCC1)C(=O)N1CCC(O)(Cn2cc(Br)ncc2=O)C2(CCCC2)C1 (stereo partly drawn) [Example 7, 5-Bromo-1-((7-((R)-3-cyclohexyl-2-methylpropanoyl)-10-hydroxy-7-azaspiro[4.5]decan-10-yl)methyl)pyrazin-2(1H)-one] |
| < 0.5 µM | COC(=O)c1cn(CC2(O)CCN(C(=O)[C@H](C)CC3CCCCC3)CC23CCCC3)c(=O)cn1 (stereo partly drawn) [Example 8, Methyl 4-((7-((R)-3-cyclohexyl-2-methylpropanoyl)-10-hydroxy-7-azaspiro[4.5]decan-10-yl)methyl)-5-oxo-4,5-dihydropyrazine-2-carboxylate] |
| 0.5 to 5 µM | C[C@H](CC1CCCCC1)C(=O)N1CCC(O)(Cn2cc(C(=O)O)ncc2=O)C2(CCCC2)C1 (stereo partly drawn) [Example 9, 4-((7-((R)-3-Cyclohexyl-2-methylpropanoyl)-10-hydroxy-7-azaspiro[4.5]decan-10-yl)methyl)-5-oxo-4,5-dihydropyrazine-2-carboxylic acid] |
| < 0.5 µM | C[C@H](CC1CCCCC1)C(=O)N1CCC(O)(Cn2cc(C(=O)N(C)C)ncc2=O)C2(CCCC2)C1 (stereo partly drawn) [Example 10, 4-((7-((R)-3-Cyclohexyl-2-methylpropanoyl)-10-hydroxy-7-azaspiro[4.5]decan-10-yl)methyl)-N,N-dimethyl-5-oxo-4,5-dihydropyrazine-2-carboxamide] |
| 0.5 to 5 µM | C[C@H](CC1CCCCC1)C(=O)N1CCC(O)(Cn2cc(-c3cccnc3)ncc2=O)C2(CCCC2)C1 (stereo partly drawn) [Example 19, 1-((7-((R)-3-Cyclohexyl-2-methylpropanoyl)-10-hydroxy-7-azaspiro[4.5]decan-10-yl)methyl)-5-(pyridin-3-yl)pyrazin-2(1H)-one] |
| 0.5 to 5 µM | C[C@H](CC1CCCCC1)C(=O)N1CCC(O)(Cn2cc(-c3ccncc3)ncc2=O)C2(CCCC2)C1 (stereo partly drawn) [Example 20, 1-((7-((R)-3-Cyclohexyl-2-methylpropanoyl)-10-hydroxy-7-azaspiro[4.5]decan-10-yl)methyl)-5-(pyridin-4-yl)pyrazin-2(1H)-one] |
